# Source: US20030005484A1, “Microbiocidal and pesticidal aromatic aldehydes” (ProGuard, Inc., priority 1994, published 2003)
# Columns and labels:
# [1] = system: leafhoppers; assay: leafhoppers on cabernet sauvignon grapevines, 0.3% spray; assay type: in vivo; details: 0.3% CNMA; two days after spraying; untreated 2.46
# Method: The effect of 0.3% cinnamic aldehyde on leafhoppers and spider mites on grapevine leaves was examined. 30% cinnamic aldehyde was diluted 1:100 in water and sprayed one time on a 1 acre block of cabernet sauvignon grapevines in a vineyard using a 300 gal Pul-Blast rsprayer at 160 psi. 120 gal. were applied to one acre of vineyard. As a control, a one-acre block remained untreated. Blocks were pseudo-replicated so as to obtain an indication of the reliability of the treatment. Prior to treatment mites on leaves were pre-counted using a dissecting microscope. Leafhopper numbers also were determined in the field prior to treatment. Two days after spraying, two leaves, one from the basal portion and one from the proximal portion of the vine were examined from 16 vines from 2 rows for each treatment. Leaf samples also were taken from both sides of the vines (north and south) to include variation due to vine exposure. […]
# [2] = system: Stubby Root nematode; assay: vineyard grape vines, nematode infestation: stubby root; assay type: in vivo
# Method: (§1) The subject formulations were tested for ability to reduce grape vine infestation by root knot, ring, stubby root, and roll lesion nematodes. Grape vines (Harmony rootstock) in a vinyard were treated with 1000 ppm or 3000 ppm cinnamaldehyde in 2% Tween 80, the commercial anti-nematode agent Nemacur, or a formulation blank. The extent of nematode infestation was determined at the time of treatment and at 30 and 60 days post-treatment.
# [3] = system: Root Knot Nematode; assay: vineyard grape vines, nematode infestation: root knot; assay type: in vivo
# Method: as §1
# [4] = system: powdery mildew; assay: powdery mildew on roses, disease rating / MPDC after foliar spray; assay type: in vivo, Sphaerotheca pannosa; details: for Mean % Disease Control, rose powdery mildew: single 100 ml foliar spray; for Mean Percentage of Disease Control (MPDC), powdery mildew: five week trial
# Method: Each formulation is evaluated for its effect on specific pests and/or plant host using any of the compounds of formula (1) as well as other components of the formulation such as Tween 80 and/or sodium bicarbonate, with the combination and effective amount of each component adapted for a particular application to minimize toxicity while maintaining or increasing the antipathogenic effect of the formulation. The effective amount of each component may be determined by systematically varying the amount of that component in a test formulation, treating a plant of interest with the test formulation, and monitoring the level of pest infestation compared to an untreated control plant. An effective amount of a test component is identified as the amount that controls the growth of the pathogen on the plant host, thus reducing the disease rating of the plant. The mean percentage disease […] (MPDC) can be calculated for each particular application. MPDC is defined by the formula: [formula] Eight cultivars of rose were tested to investigate the effect of a cinnamic aldehyde/NaHCO3 formulation on rust and spores. The cultivars used included Moss unnamed (Moss), […], Rosette Delize (Hybrid Tea), Rosa Rugosa Rubra (Rugosa), Abel Morrison (Hybrid perpetual), John Laing, Betty Prior, and Rose de Roi. […] The Hybrid Tea and Hybrid perpetual were rated 3 and the Rugosa was rated 1. […] Control plants received no treatment. […] Moreover, the treatment appeared to have induced systemic resistance. […] Plants were an average of 0.86 m apart. […] Controls were untreated plants. […] Weekly reviews were made of the various plants. […] of infected rose in dedicated experimental rose gardens were used. Four Mrs. John Laing (Hybrid perpetual) and two Marchionese of Londonderry (Hybrid perpetual) rose plants were treated with one of two formulations of coniferyl aldehyde. […] The first two Mrs. […] Mrs. […] Both Marchionese of Londonderry plants (P5 and P6) were rated 5 for powdery mildew and rust after Paulus and Nelson (supra). Two treatment formulae were used for this trial. […] Control plants were sprayed with water alone. The change in the rating from pre-treatment to post-treatment was calculated as the mean percentage of disease control (MPDC) as described herein. A three treatment experiment with cinnamic aldehyde formula, coniferyl aldehyde formula and combined cinnamic and coniferyl aldehyde formula was carried out on field grown roses known to be susceptible to powdery mildew. The plants were blocked by variety before fungicide treatments and were randomized as to the plants. Two varieties were used in each of the three experiments described below. […] In experiment 3 Comte de Chambord (Portland) and Madame Pierre Oger (Bourbon) were used. In Experiment 1, the effect of cinnamic aldehyde alone and in combination with Tween 80 and/or NaHCO3 component was evaluated in experiment 2 the effect of coniferyl aldehyde alone and in combination with Tween 80 and/or NaHCO3 was evaluated and in experiment 3 a combination of cinnamic aldehyde and coniferyl aldehyde with Tween 80 and/or NaHCo3 was evaluated. […] See Table 3 for the treatment protocol; formula 1 was used for these experiments. […] Plants were evaluated using the Paulus/Nelson scale just prior to and four days after treatment. […] Moreover, cinnamic aldehyde, coniferyl aldehyde, Tween 80 and NaHCO3 are used in the food industry and there is likely to be little toxicological risk to the consumer or handler from any horticultural or food crop sprayed in this way. Similarly, as these chemicals leave no toxic residue, there is little chance of any detrimental effect on the wider environment, and their use is likely to be compatible with current biological control methods such as beneficial insects and/or microorganisms.
# [5] = system: phylloxera Biotype A; assay: planter / field box vines, leaf spray, phylloxera population on roots; assay type: in vivo, Daktulosphaira vitifoliae; details: Chardonnay (2 treatments), two weeks
# [6] = 1000 ppm in 2% Tween 80, 30 days post-treatment
# [7] = 1000 ppm in 2% Tween 80, 60 days post-treatment
# [8] = 1000 ppm in 2% Tween 80, day 0 (time of treatment)
# [9] = 3000 ppm in 2% Tween 80, 30 days post-treatment
# [10] = 3000 ppm in 2% Tween 80, 60 days post-treatment
# [11] = 3000 ppm in 2% Tween 80, day 0 (time of treatment)
smiles,measurement,setting,value
O=C/C=C/c1ccccc1 [cinnamic aldehyde],LEAFHOPPERS/LEAF,[1],0.16
same,"Stubby Root, nematodes per 250 cc soil",[2]; [6],45 per 250 cc soil
same,"Stubby Root, nematodes per 250 cc soil",[2]; [7],36.2 per 250 cc soil
same,"Stubby Root, nematodes per 250 cc soil",[2]; [8],13.8 per 250 cc soil
same,"Stubby Root, nematodes per 250 cc soil",[2]; [9],8.8 per 250 cc soil
same,"Stubby Root, nematodes per 250 cc soil",[2]; [10],43.5 per 250 cc soil
same,"Stubby Root, nematodes per 250 cc soil",[2]; [11],0.8 per 250 cc soil
same,"Root Knot Nematode, nematodes per 250 cc soil",[3]; [6],872 per 250 cc soil
same,"Root Knot, nematodes per gram root",[3]; [6],55.2 per gram root
same,"Root Knot Nematode, nematodes per 250 cc soil",[3]; [7],204.5 per 250 cc soil
same,"Root Knot, nematodes per gram root",[3]; [7],11.8 per gram root
same,"Root Knot Nematode, nematodes per 250 cc soil",[3]; [8],498.8 per 250 cc soil
same,"Root Knot, nematodes per gram root",[3]; [8],301.3 per gram root
same,"Root Knot Nematode, nematodes per 250 cc soil",[3]; [9],700 per 250 cc soil
same,"Root Knot, nematodes per gram root",[3]; [9],125.6 per gram root
same,"Root Knot Nematode, nematodes per 250 cc soil",[3]; [10],269.8 per 250 cc soil
same,"Root Knot Nematode, nematodes per 250 cc soil",[3]; [11],379.8 per 250 cc soil
same,"Root Knot, nematodes per gram root",[3]; [11],24.4 per gram root
same,"Mean % Disease Control, rose powdery mildew","[4]; aldehyde 5 g (mixture 2.5 g + 2.5 g) with NaHCO3 (80 g), four days",56%
same,"Mean % Disease Control, rose powdery mildew","[4]; aldehyde 5 g (mixture 2.5 g + 2.5 g) with T80 (10 g), four days",44%
same,"Mean % Disease Control, rose powdery mildew","[4]; aldehyde 5 g (mixture 2.5 g + 2.5 g) with T80 + NaHCO3 (formulas G, M, Q), four days",94%
same,"Mean % Disease Control, rose powdery mildew","[4]; aldehyde 5 g (mixture 2.5 g + 2.5 g), no additive, rated four days after treatment",50%
same,"Mean Percentage of Disease Control (MPDC), powdery mildew","[4]; field rose Betty Prior, same single spray",64.3%
same,"Mean Percentage of Disease Control (MPDC), powdery mildew","[4]; field rose John Laing, single spray 5 g cinnamic aldehyde, 10 g Tween 80, 80 g NaHCO3 per 1000 g",98.3%
same,"Mean Percentage of Disease Control (MPDC), powdery mildew","[4]; field rose Rose de Roi, same single spray",100%
same,"MPDC, powdery mildew, average for all three roses","[4]; field roses John Laing, Betty Prior, Rose de Roi, same single spray",90.7%
same,time plants remained free of powdery mildew and rust,"[4]; potted or field roses sprayed to runoff with emulsion of cinnamic aldehyde and sodium bicarbonate, concomitantly saponin",up to 56 days
same,powdery mildew after a single treatment,"[4]; potted roses, ~100 ml foliar spray of 5 g cinnamic aldehyde, 80 g NaHCO3, 10 g Tween 80 per 1000 g, weekly saponin, observed 8 weeks",eradicative
same,Number of phylloxera per root piece,[5]; 1 K CNMA,637
same,Number of phylloxera per root piece,[5]; 10 K CNMA,102
